≈ marks a conversion by molar mass, not a printed value. Read-outs that look alike come from different tables or passages of the source.
How the values were obtained:
Assay type in all cases: cell-based
[1] = test system: Bacillus subtilis PCI 219; assay: MIC, in vitro antibacterial activity (standard strains); conditions: PCI219; Bacillus subtilis PCI 219, 10^6 cells/ml, Gram +
[2] = test system: S. aureus IID 670 (Terajima); assay: as above; conditions: Staphylococcus aureus, IID670, 10^6 cells/ml, Gram +
[3] = test system: S. pyogenes IID 692; assay: as above; conditions: Streptococcus pyogenes, IID692; S. pyogenes IID 692, 10^6 cells/ml, Gram +
[4] = test system: S. pneumoniae IID 552; assay: as above; conditions: Streptococcus pneumoniae, IID552; S. pneumoniae IID 552, 10^6 cells/ml, Gram +; read-out: MIC
[5] = test system: Escherichia coli NIHJ JC-2; assay: as above; conditions: NIHJJC2; Escherichia coli NIHJ JC-2, 10^6 cells/ml, Gram -; read-out: MIC
[6] = test system: E. coli ATCC 10536; assay: as above; conditions: Escherichia coli, ATCC10536
[7] = test system: P. mirabilis IID 994; assay: as above; conditions: Proteus mirabilis, IID994
[8] = test system: K. pneumoniae 1-220S; assay: as above; conditions: Klebsiella pneumoniae, 1220S; K. pneumoniae 1-220S, 10^6 cells/ml, Gram -; read-out: MIC
[9] = test system: Serratia marcescens IID 618; assay: as above; conditions: IID618; Serratia marcescens IID 618, 10^6 cells/ml, Gram -
[10] = test system: Shigella sonnei IID 969; assay: as above; conditions: IID969; Shigella sonnei IID 969, 10^6 cells/ml, Gram -
Method: Minimal inhibitory concentrations (MICs) were determined in accordance with the method recommended by Japan Society of Chemotherapy.

[11] = test system: Salmonella enteritidis IID 604; assay: as above; conditions: Salmonella enterica
[12] = test system: P. aeruginosa IFO 12689; assay: as above; conditions: Pseudomonas aeruginosa, IFO12689; P. aeruginosa IFO 12689, 10^6 cells/ml, Gram -
[13] = test system: Yersinia enterocolitica IID 981; assay: as above; conditions: IID981; Yersinia enterocolitica IID 981, 10^6 cells/ml, Gram -
[14] = test system: Bacteroides fragilis GM 7000; assay: as above; conditions: GM7000; Bacteroides fragilis GM 7000, 10^6 cells/ml, Gram -
[15] = test system: B. fragilis 25285; assay: as above; conditions: Bacteroides fragilis; B. fragilis 25285, 10^6 cells/ml, Gram -
[16] = test system: F. varium KYA 8501; assay: as above; conditions: Fusobacterium varium, KYA8501; F. varium KYA 8501, 10^6 cells/ml, Gram -; read-out: MIC
[17] = test system: Peptococcus magnus KY 017; assay: as above; conditions: Finegoldia magna, KY017; Peptococcus magnus KY 017, 10^6 cells/ml, Gram +
[18] = test system: Veillonella parvula KYA 10790; assay: as above; conditions: KYA10790; Veillonella parvula KYA 10790, 10^6 cells/ml, Gram -
[19] = test system: S. epidermidis; assay: MIC, in vitro antibacterial activity (clinical isolates); conditions: Staphylococcus epidermidis, No. of strains 10
[20] = test system: S. pneumoniae; assay: as above; conditions: Streptococcus pneumoniae; clinical isolates S. pneumoniae, No. of strains 6; read-out: MIC
[21] = test system: E. faecalis; assay: as above; conditions: Enterococcus faecalis, No. of strains 5
[22] = test system: N. meningitidis; assay: as above; conditions: Neisseria meningitidis, No. of strains 3
[23] = test system: H. influenzae; assay: as above; conditions: Haemophilus influenzae, No. of strains 26
[24] = test system: E. cloacae; assay: as above; conditions: Enterobacter cloacae
[25] = test system: S. marcescens; assay: as above; conditions: Serratia marcescens, No. of strains 20
[26] = test system: P. mirabilis; assay: as above; conditions: Proteus mirabilis, No. of strains 10
[27] = test system: C. freundii; assay: as above; conditions: Citrobacter freundii, No. of strains 9
[28] = test system: Acinetobacter sp.; assay: as above; conditions: clinical isolates Acinetobacter sp., No. of strains 13; read-out: MIC
[29] = test system: Bacteroides sp.; assay: as above; conditions: No. of strains 17
[30] = test system: S. aureus Smith; conditions: Conc. of Drugs 2MIC
[31] = test system: E. cloacae IID 977
[32] = test system: S. marcescens IID 618
[33] = test system: S. marcescens GN 7577
[34] = test system: P. aeruginosa IFO 12689
[35] = test system: P. aeruginosa IFO 1210
[36] = E. cloacae IID 977, Conc. of Drugs 2MIC
[37] = E. cloacae IID 977, Conc. of Drugs 4MIC
[38] = S. marcescens IID 618, Conc. of Drugs 2MIC
[39] = S. marcescens IID 618, Conc. of Drugs 4MIC
[40] = S. marcescens GN 7577, Conc. of Drugs 4MIC
[41] = S. marcescens GN 7577, Conc. of Drugs 8MIC
[42] = P. aeruginosa IFO 12689, Conc. of Drugs 2MIC
[43] = P. aeruginosa IFO 12689, Conc. of Drugs 4MIC
[44] = P. aeruginosa IFO 1210, Conc. of Drugs 2MIC
[45] = P. aeruginosa IFO 1210, Conc. of Drugs 4MIC

Compound: NC1CCN(c2c(F)cc3c(=O)c(C(=O)O)cn(C4CC4)c3c2Cl)C1 (stereo not drawn) [Example 25, 7-(3-Amino-l-pyrrolidinyl)-8-chloro-l-cyclopropyl-6-fluoro-1,4-dihydro-4-oxo-3-quinolinecarboxylic acid]
- MIC [1]: 0.025 µg/mL
- MIC [2]: 0.05 µg/mL
- MIC [3]: 0.1 µg/mL
- MIC [4]: 0.1 µg/mL (≈ 0.273 µM)
- MIC [5]: ≤ 0.006 µg/mL
- MIC [6]: 0.0125 µg/mL (≈ 0.0342 µM)
- MIC [7]: 0.0125 µg/mL (≈ 0.0342 µM)
- MIC [8]: 0.05 µg/mL (≈ 0.137 µM)
- MIC [9]: 0.05 µg/mL (≈ 0.137 µM)
- MIC [10]: 0.0125 µg/mL (≈ 0.0342 µM)
- MIC [11]: 0.0125 µg/mL (≈ 0.0342 µM)
- MIC [12]: 0.2 µg/mL (≈ 0.547 µM)
- MIC [13]: 0.025 µg/mL (≈ 0.0683 µM)
- MIC [14]: 0.1 µg/mL (≈ 0.273 µM)
- MIC [15]: 0.1 µg/mL (≈ 0.273 µM)
- MIC [16]: 0.78 µg/mL (≈ 2.13 µM)
- MIC [17]: 0.05 µg/mL
- MIC [18]: 0.05 µg/mL (≈ 0.137 µM)
- MIC [19]: 0.05 µg/mL (≈ 0.137 µM)
- MIC [20]: 0.1 µg/mL (≈ 0.273 µM)
- MIC [21]: 0.2 µg/mL (≈ 0.547 µM)
- MIC [22]: 0.006 µg/mL (≈ 0.0164 µM)
- MIC [23]: 0.013 µg/mL (≈ 0.0355 µM)
- MIC [24]: 0.013 µg/mL (≈ 0.0355 µM)
- MIC [25]: 0.05 µg/mL (≈ 0.137 µM)
- MIC [26]: 0.05 µg/mL (≈ 0.137 µM)
- MIC [27]: 0.1 µg/mL (≈ 0.273 µM)
- MIC [28]: 0.1 µg/mL (≈ 0.273 µM)
- MIC [29]: 0.1 µg/mL (≈ 0.273 µM)
- Frequency of spontaneous resistant mutants [30]: <2.9 × 10^-9
- Frequency of spontaneous resistant mutants [31, 36]: 6.7 × 10^-10
- Frequency of spontaneous resistant mutants [31, 37]: <6.7 × 10^-10
- Frequency of spontaneous resistant mutants [32, 38]: 1.5 × 10^-8
- Frequency of spontaneous resistant mutants [32, 39]: <1.0 × 10^-9
- Frequency of spontaneous resistant mutants ([33]; S. marcescens GN 7577, Conc. of Drugs 2MIC): 2.3 × 10^-7
- Frequency of spontaneous resistant mutants [33, 40]: <5.3 × 10^-10
- Frequency of spontaneous resistant mutants [33, 41]: <5.3 × 10^-10
- Frequency of spontaneous resistant mutants [34, 42]: 4.5 × 10^-8
- Frequency of spontaneous resistant mutants [34, 43]: <6.3 × 10^-10
- Frequency of spontaneous resistant mutants [35, 44]: <6.7 × 10^-10
- Frequency of spontaneous resistant mutants [35, 45]: <6.7 × 10^-10

Compound: CC1CN(c2c(F)cc3c(=O)c(C(=O)O)cn(C4CC4)c3c2Cl)CCN1 (stereo not drawn) [Ref.2, 8-Chloro-1-cyclopropyl-6-fluoro-1,4-dihydro-7-(3-methyl-1-piperazinyl)-4-oxo-3-quinolinecarboxylic acid]
- MIC [1]: 0.025 µg/mL
- MIC [2]: 0.1 µg/mL
- MIC [3]: 0.78 µg/mL
- MIC [4]: 0.39 µg/mL (≈ 1.03 µM)
- MIC [5]: ≤ 0.006 µg/mL
- MIC [6]: 0.0125 µg/mL (≈ 0.0329 µM)
- MIC [7]: 0.0125 µg/mL (≈ 0.0329 µM)
- MIC [8]: 0.05 µg/mL (≈ 0.132 µM)
- MIC [9]: 0.05 µg/mL (≈ 0.132 µM)
- MIC [10]: 0.0125 µg/mL (≈ 0.0329 µM)
- MIC ([11]; Salmonella enteritidis IID 604, 10^6 cells/ml, Gram -, read-out: MIC): 0.05 µg/mL (≈ 0.132 µM)
- MIC [12]: 1.56 µg/mL (≈ 4.11 µM)
- MIC [13]: 0.05 µg/mL (≈ 0.132 µM)
- MIC [14]: 0.39 µg/mL (≈ 1.03 µM)
- MIC [15]: 0.39 µg/mL (≈ 1.03 µM)
- MIC [16]: 3.13 µg/mL (≈ 8.24 µM)
- MIC [17]: 0.2 µg/mL
- MIC [18]: 0.2 µg/mL (≈ 0.527 µM)
- MIC [19]: 0.1 µg/mL (≈ 0.263 µM)
- MIC [20]: 0.78 µg/mL (≈ 2.05 µM)
- MIC [21]: 0.78 µg/mL (≈ 2.05 µM)
- MIC [22]: 0.006 µg/mL (≈ 0.0158 µM)
- MIC [23]: 0.025 µg/mL (≈ 0.0658 µM)
- MIC [24]: 0.05 µg/mL (≈ 0.132 µM)
- MIC [25]: 0.05 µg/mL (≈ 0.132 µM)
- MIC [26]: 0.05 µg/mL (≈ 0.132 µM)
- MIC [27]: 0.2 µg/mL (≈ 0.527 µM)
- MIC [28]: 0.78 µg/mL (≈ 2.05 µM)
- MIC [29]: 0.39 µg/mL (≈ 1.03 µM)
- Frequency of spontaneous resistant mutants [30]: 3.6 × 10^-7
- Frequency of spontaneous resistant mutants [31, 36]: 3.1 × 10^-7
- Frequency of spontaneous resistant mutants [31, 37]: <6.7 × 10^-10
- Frequency of spontaneous resistant mutants [32, 38]: 1.0 × 10^-7
- Frequency of spontaneous resistant mutants [32, 39]: <1.0 × 10^-9
- Frequency of spontaneous resistant mutants [33, 40]: 9.9 × 10^-7
- Frequency of spontaneous resistant mutants [33, 41]: 2.1 × 10^-9
- Frequency of spontaneous resistant mutants [34, 42]: 5.5 × 10^-7
- Frequency of spontaneous resistant mutants [34, 43]: <6.3 × 10^-10
- Frequency of spontaneous resistant mutants [35, 44]: 7.7 × 10^-8
- Frequency of spontaneous resistant mutants [35, 45]: <6.7 × 10^-10

Source: patent publication EP0195316A1, “Quinolonecarboxylic acid derivatives” (KYORIN PHARMACEUTICAL CO., LTD., priority 1985, dated 1986)
